The record followed here is patent US20210277352A1, “ENRICHMENT SUPPLEMENT FOR ANTIMICROBAL MATRICES” (priority 2018, published 2021).

In experiment [1] the test system is Listeria innocua (ATCC 33090). In kind it is cell-based.
For experiment [2], the system named is Listeria innocua (ATCC 33090). The note with it: 25 g food matrix, 100 mL Demi Fraser media, inoculation 1.4 cfu/sample, 35° C. 24 hours, mean of two replicates. As to the method: (§1) Individual inoculums were prepared by serially diluting each culture sample with Butterfield's Buffer (3M Company, St. Paul, Minn.). To determine the cell concentration (cfu/sample), a 1 mL aliquot of diluted sample was plated onto a […] Aerobic Count Plate (3M Company, St. Paul, Minn.), incubated, and counted according to the manufacturer's instructions. The counts (cfu) from the plates were used to calculate the final dilution required to achieve the targeted inoculum concentration.
(§2) The inoculated sample was added to a WHIRL-PAK sterile sampling bag that contained 100 mL of Demi Fraser enrichment media. […] The bag was closed and the sample was mixed for 30 seconds followed by incubation at 35° C. for 24 hours. A 10 mL aliquot of the media was removed and serially diluted with fresh Demi Fraser media. A 100 microliter sample from the final dilution was plated onto a Modified Oxford (MOX) agar plate according to the manufacturer's instructions and the plate was incubated at 37° C. for 24 hours. Colonies (cfu) that formed were counted by visual inspection. The total colony count post enrichment was calculated by adjusting the observed plate count based on the number and volume of the dilutions.

For experiment [3], the system named is Salmonella typhimurium (ATCC 14028). The note with it: 25 g food matrix, 100 mL BPW media, inoculation 10 cfu/sample, 35° C. 24 hours, mean of two replicates. As to the method: as §1
as §2, with “of Buffered Peptone Water” for “of Demi Fraser”, “with” for “with fresh”, “Fraser media (3M Company, St. Paul, Minn.).” for “Fraser media.”, “onto an EZ-CHROM Salmonella Plus” for “onto a Modified Oxford (MOX)”, “dilutions. The recovery of Salmonella typhimurium (cfu/mL) after enrichment is reported in Table 1 as the mean value of two replicates.” for “dilutions.”

Where [4] appears, read: salt in enrichment media 331 micromolar, 50 g food matrix, 200 mL Demi Fraser media, inoculation 3.7 cfu/sample, mean of two replicates.
Where [5] appears, read: salt in enrichment media 330 micromolar, 50 g food matrix, 200 mL Demi Fraser media, inoculation 3.7 cfu/sample, mean of two replicates.

Read-outs that look alike come from different tables or passages of the source.

Consider `[Ba+2].[Cl-].[Cl-]` [BaCl2, barium chloride], for which the “Recovery after Enrichment” value in experiment [1] (setting [4]) is reported as 1 × 10^4 cfu/mL.
Consider `[Ca+2].[Cl-].[Cl-]` [CaCl2, calcium chloride], for which the “Recovery after Enrichment” value in experiment [1] is listed as 1 × 10^4 cfu/mL.
Regarding `O.O.O.O.O.O.O.O=S(=O)([O-])[O-].[Fe+2]` [FeSO4, ferrous sulfate heptahydrate], the “Recovery after Enrichment” value is 1 × 10^5 cfu/mL in experiment [2] (FeSO4 50 mg/L); 1 × 10^3 cfu/mL in experiment [2] (FeSO4 500 mg/L); 1 × 10^3 cfu/mL in experiment [2] (FeSO4 2000 mg/L); 1 × 10^6 cfu/mL in experiment [3] (FeSO4 50 mg/L); 1 × 10^6 cfu/mL in experiment [3] (FeSO4 500 mg/L); 1 × 10^7 cfu/mL in experiment [3] (FeSO4 2000 mg/L).
For the molecule `O=S(=O)([O-])[O-].[Mg+2]` [MgSO4, magnesium sulfate], the “Recovery after Enrichment” value in experiment [1] (salt in enrichment media 332 micromolar, 50 g food matrix, 200 mL Demi Fraser media, inoculation 3.7 cfu/sample, mean of two replicates) was 1 × 10^5 cfu/mL.
Consider `[Cl-].[Cl-].[Zn+2]` [ZnCl2, zinc chloride], for which the “Recovery after Enrichment” value is 1 × 10^6 cfu/mL in experiment [1] (ZnCl2 45 mg/L, 50 g food matrix, 200 mL Demi Fraser media, inoculation 3.7 cfu/sample, 35° C. 24 hours, mean of two replicates) and 1 × 10^6 cfu/mL in experiment [1] (setting [5]).
For “ferric ammonium citrate [Example C6H11FeNO7]”, the “Recovery after Enrichment” value in experiment [1] (setting [5]) was 1 × 10^4 cfu/mL.
For the molecule ferric citrate [Example C6H5FeO7], in experiment [1] (setting [4]), the “Recovery after Enrichment” value is 1 × 10^4 cfu/mL.
